Assay results taken from patent EP1205473A1, “VESAMICOL PIPERAZINE DERIVATIVES AND DRUGS CONTAINING THE SAME” (DAIICHI RADIOISOTOPE LABORATORIES, LTD., priority 1999, dated 2001).
Like-named read-outs stand apart in the source and are kept apart here.

Experiments:
vesamicol receptors = molecular target: T1, vesamicol receptors (Rattus norvegicus, UniProt Q62666); test: Inhibition experiment: inhibition of binding of radioactive-iodine-labeled DRC140 to P2 fractions; design: Synaptic vesicles were extracted and separated from the brain of a rat; from tissue; host or cells: rat brain without cerebellum: P2, crude synaptic vesicles, purified synaptic vesicles
T1 sequence (Q62666 1-530): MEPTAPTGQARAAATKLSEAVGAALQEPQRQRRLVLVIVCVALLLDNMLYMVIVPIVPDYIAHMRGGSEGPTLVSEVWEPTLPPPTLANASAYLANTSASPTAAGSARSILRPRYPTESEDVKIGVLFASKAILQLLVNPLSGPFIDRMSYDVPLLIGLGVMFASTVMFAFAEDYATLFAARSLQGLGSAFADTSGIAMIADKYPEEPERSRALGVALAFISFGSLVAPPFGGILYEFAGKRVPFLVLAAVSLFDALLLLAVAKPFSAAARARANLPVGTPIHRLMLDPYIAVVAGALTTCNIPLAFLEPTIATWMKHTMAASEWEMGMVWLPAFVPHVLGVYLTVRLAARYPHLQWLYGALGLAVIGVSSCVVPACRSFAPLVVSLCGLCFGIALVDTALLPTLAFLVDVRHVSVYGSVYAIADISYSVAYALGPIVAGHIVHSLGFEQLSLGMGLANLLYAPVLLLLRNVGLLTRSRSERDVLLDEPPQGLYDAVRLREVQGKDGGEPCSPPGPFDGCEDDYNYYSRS

sigma receptors = molecular target: T2, sigma receptors (Cavia porcellus, UniProt Q60492); test: Receptor binding test: inhibition of tritium-labeled (+) pentazocine binding to brain homogenate; design: species or system male guinea pig; settings: inhibitive concentration at 50% (IC50), Receptor Sigma-1
T2 construct: The brain was immediately extracted; The cerebellum was removed from the brain; from tissue; host or cells: guinea pig brain without cerebellum, membrane pellet
Protocol: Properties relating to binding of the vesamicol piperazine derivatives of the present invention to various receptors were examined as follows. Specifically, ligands which combine with each receptor were incubated together with homogenates prepared as follows.
To measure affinity to sigma receptors, tritium-labeled (+) pentazocine was added to a brain homogenate prepared as follows. The vesamicol piperazine derivatives synthesized in the Examples were added at various concentrations, and the mixture was incubated for two hours at room temperature.
B (%) =((1 0 0 × [U])^(∩))/([ I C50 (])^(∩) (+ [U])^(∩)) [formula] wherein B(%) is the proportion of specific binding in the total binding, n indicates a Hill coefficient, and U is the concentration of unbound ligand.
A male guinea pig was anesthetized with ether and was decapitated. The brain was immediately extracted. The cerebellum was removed from the brain. 10 mM Tris-sucrose buffer solution (0.32 M sucrose + 10 mM Tris-HCl (pH 7.4)) was added in the amount of 10 ml/g of the tissue. The mixture was homogenized by a potter-type homogenizer for 6-10 strokes. The homogenate was centrifuged at 1,000 x g for 10 minutes at 4°C and the supernatant liquid was collected. The resulting pellets were suspended in the Tris-sucrose buffer solution at the concentration of 2 ml/g, followed by centrifugation at 1,000 x g for 10 minutes at 4°C. The supernatant liquids obtained by the two centrifugation at 1,000 x g were combined and centrifuged at 31,000 x g for 15 minutes at 4°C. The resulting pellets were suspended in a 10 mM Tris-HCl buffer solution (pH 7.4) at a concentration of 3 ml/g of tissue and incubated for 30 minutes at 25°C. After incubation, the suspension was centrifuged at 31,000 x g for 15 minutes at 4°C. The pellets obtained were suspended in a 10 mM Tris-HCl buffer solution (pH 7.4) to make a final concentration of 1.53 ml/g of tissue. The suspension was homogenized by a potter-type homogenizer for 5 strokes. The homogenate was stored at -80°C until the start of the experiment.

[1] = inhibitive concentration at 50% (IC50), Receptor Vesamicol
[2] = Table 7, P2 fractions, inhibition of radioactive-iodine-labeled DRC140 binding, Binding site names the inhibitor's own site, read-out: IC50 (nM) Average ± S.D

T2 sequence (Q60492 whole entry): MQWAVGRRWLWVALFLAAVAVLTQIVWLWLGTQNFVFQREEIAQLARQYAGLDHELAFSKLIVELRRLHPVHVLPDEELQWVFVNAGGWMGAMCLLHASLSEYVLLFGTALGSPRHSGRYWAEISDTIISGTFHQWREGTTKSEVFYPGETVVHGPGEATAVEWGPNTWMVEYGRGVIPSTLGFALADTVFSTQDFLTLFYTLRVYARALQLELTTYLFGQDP

5-iodobenzovesamicol [(+)-IBVM, reference compound]
IC50 (vesamicol receptors; read-out: inhibitive concentration at 50% (IC50), Receptor Vesamicol, Table 9, high purity derivatives (HPLC purified), I-125 labeled DRC140, P2 fractions, 3 hours at 37°C, unit inferred): 0.5 nM

COc1ccccc1N1CCN([C@@H]2Cc3c(I)cccc3C[C@H]2O)CC1 (racemic) [DRF400, (±)-trans-5-iodo-2-hydroxy-3-[4-[2-methoxyphenyl]piperazinyl]tetralin]
IC50 (sigma receptors): 28800 nM
IC50 (vesamicol receptors; [1]): 1.09 nM

CC(=O)Nc1ccccc1N1CCN([C@@H]2Cc3c(I)cccc3C[C@H]2O)CC1 (racemic) [DRF401, (±)-trans-5-iodo-2-hydroxy-3-[4-[N-acetyl-2-aminophenyl]-piperazinyl]tetralin]
IC50 (vesamicol receptors; [1]): 0.89 nM

Nc1ccccc1N1CCN([C@@H]2Cc3c(I)cccc3C[C@H]2O)CC1 (racemic) [DRF402, (±)-trans-5-iodo-2-hydroxy-3-[4-[2-aminophenyl]piperazinyl]tetralin]
IC50 (vesamicol receptors; [1]): 0.63 nM

Oc1ccccc1N1CCN([C@@H]2Cc3c(I)cccc3C[C@H]2O)CC1 (racemic) [DRF403, (±)-trans-5-iodo-2-hydroxy-3-[4-[2-hydroxyphenyl]piperazinyl]tetralin]
IC50 (sigma receptors): 3030 nM
IC50 (vesamicol receptors; [1]): 2.42 nM

Nc1ccccc1N1CCN([C@@H]2Cc3cc(I)ccc3C[C@H]2O)CC1 (racemic) [DRG446, (±)-trans-6-iodo-2-hydroxy-3-[4-[2-aminophenyl]piperazinyl]tetralin]
IC50 (sigma receptors): 544 nM
IC50 (vesamicol receptors; [1]): 0.38 nM

Cc1ccccc1N1CCN([C@@H]2Cc3c(I)cccc3C[C@H]2O)CC1 (single isomer, unassigned) [DRE341, (+)-trans-5-iodo-2-hydroxy-3-[4-[2-methylphenyl]piperazinyl]tetralin]
IC50 (vesamicol receptors; [1]): 1.96 nM

Nc1ccccc1N1CCN([C@@H]2Cc3c(I)cccc3C[C@H]2O)CC1 (single isomer, unassigned) [DRF419, (-)-trans-5-iodo-2-hydroxy-3-[4-[2-aminophenyl]piperazinyl]tetralin]
IC50 (sigma receptors): 4710 nM
IC50 (vesamicol receptors; [1]): 0.3 nM

OC1CCCCC1N1CCC(c2ccccc2)CC1 (single isomer, unassigned; (+)) [(+)-Vesamicol, 2-(4-phenyl-piperidino)cyclohexanol, reference compound]
IC50 (vesamicol receptors; IC50 (nM) Average ± S.D): > 5000 nM

COc1ccccc1N1CCN(CCCNc2c(C)c(=O)n(C)c(=O)n2C)CC1 [5-Methylurapidil, reference compound]
IC50 (vesamicol receptors; IC50 (nM) Average ± S.D): > 5000 nM

CC1=NN=C(c2ccc(N)cc2)c2cc3c(cc2C1)OCO3 [GYKI52466, reference compound]
IC50 (vesamicol receptors; IC50 (nM) Average ± S.D): > 5000 nM

CN(C(=O)Cc1ccc(Cl)c(Cl)c1)C(CN1CCCC1)c1cccc(OCC(=O)O)c1 (stereo not shown) [ICI204, 448, reference compound]
IC50 (vesamicol receptors; IC50 (nM) Average ± S.D): > 5000 nM

COc1ccccc1N1CCN(CCCCN2C(=O)c3ccccc3C2=O)CC1 [NAN-190, reference compound]
IC50 (vesamicol receptors; [2]): > 5000 nM

CNC(=O)Oc1ccc2c(c1)[C@]1(C)CCN(C)[C@@H]1N2C [Physostigmine, reference compound]
IC50 (vesamicol receptors; IC50 (nM) Average ± S.D): > 5000 nM

COC(=O)[C@H]1[C@H]2C[C@@H]3c4[nH]c5cc(OC)ccc5c4CCN3C[C@H]2C[C@@H](OC(=O)c2cc(OC)c(OC)c(OC)c2)[C@@H]1OC [Reserpine, reference compound]
IC50 (vesamicol receptors; [2]): > 5000 nM
